Source: patent US20080070949A1, “POLYMORPHS OF RIMONABANT” (Cipla Limited, priority 2006, published 2008)
Blank lines part the entries; values can stand above or below the molecule they belong to.

Key:
Format in all cases: physicochemical
[1] = Long term stability testing; settings: 30±2C., 65±5% relative humidity
Description: (§1) Long term and accelerated stability testing was carried out on crystalline rimonabant Form C.
(§2) Each sample was hermetically sealed in double HMHDPE bags and placed in fibre drum. Quantity of sample=0.8 gm per analysis. Storage conditions (long term)=30±2C., 65±5% relative humidity. Storage conditions (accelerated)=40±2° C., 75±5% relative humidity.

[2] = Accelerated stability testing; settings: 40±2° C., 75±5% relative humidity
Description: as §1, §2

[3] = Comparative intrinsic dissolution study (HPLC-UV method); settings: 900 ml of 1% Sodium Lauryl Sulphate in 0.05 M NaH2PO4 buffer pH 6.6, 50 RPM, 37° C.
Description: Intrinsic dissolution was studied using an HPLC-UV method with the following parameters:
Dissolution media:—900 ml of 1% Sodium Lauryl Sulphate (SLS) in buffer.
Buffer: 0.05 M NaH2PO4 pH 6.6 with NaOH
Mobile Phase:Buffer:Acetonitrile 30:70 Buffer 0.02 M NaH2PO4 0.1% Triethylamine pH 2.5 with phosphoric acid.
Column: YMC Pack Pro 18 15 cm.
Pressure applied for preparation of pellet=2.5 tonns for 5 mins.
Filter=Whatman 0.45 micron.
The results of the intrinsic dissolution study are illustrated in the graph in FIG. 5.

[4] = initially, at 1 month, at 2 months and at 3 months

- Assay (98.0%–102.0% w/w) ([1]; Initial): 99.86 % w/w
- Chromatographic purity by HPLC Individual impurity NMT 0.10% ([1]; Initial): 0.08%
- Chromatographic purity by HPLC Total impurities NMT 1.00% ([1]; Initial): 0.20%
- Water Content (By KF) NMT 5.0% w/w ([1]; Initial): 3.08 % w/w
- description of sample ([1]; initially and at 3 months): white colour powder
- polymorphic identity confirmed by XRPD, IR and DSC ([1]; initially and at 3 months): Form C
- Assay (98.0%–102.0% w/w) ([1]; period of keeping (3 months)): 99.13 % w/w
- Chromatographic purity by HPLC Individual impurity NMT 0.10% ([1]; period of keeping (3 months)): 0.08%
- Chromatographic purity by HPLC Total impurities NMT 1.00% ([1]; period of keeping (3 months)): 0.20%
- Remarks ([1]; period of keeping (3 months)): Product is stable
- Water Content (By KF) NMT 5.0% w/w ([1]; period of keeping (3 months)): 3.08 % w/w
- Assay (98.0%–102.0% w/w) ([2]; 1 Month): 101.36 % w/w
- Chromatographic purity by HPLC Individual impurity NMT 0.10% ([2]; 1 Month): 0.08%
- Chromatographic purity by HPLC Total impurities NMT 1.00% ([2]; 1 Month): 0.16%
- Water Content (By KF) NMT 5.0% w/w ([2]; 1 Month): 3.94 % w/w
- Assay (98.0%–102.0% w/w) ([2]; 2 Months): 100.67 % w/w
- Chromatographic purity by HPLC Individual impurity NMT 0.10% ([2]; 2 Months): 0.08%
- Chromatographic purity by HPLC Total impurities NMT 1.00% ([2]; 2 Months): 0.21%
- Water Content (By KF) NMT 5.0% w/w ([2]; 2 Months): 4.27 % w/w
- Assay (98.0%–102.0% w/w) ([2]; 3 Months): 99.45 % w/w
- Chromatographic purity by HPLC Individual impurity NMT 0.10% ([2]; 3 Months): 0.08%
- Chromatographic purity by HPLC Total impurities NMT 1.00% ([2]; 3 Months): 0.20%
- Water Content (By KF) NMT 5.0% w/w ([2]; 3 Months): 4.07 % w/w
- Assay (98.0%–102.0% w/w) ([2]; Initial): 99.86 % w/w
- Chromatographic purity by HPLC Individual impurity NMT 0.10% ([2]; Initial): 0.08%
- Chromatographic purity by HPLC Total impurities NMT 1.00% ([2]; Initial): 0.20%
- Water Content (By KF) NMT 5.0% w/w ([2]; Initial): 3.08 % w/w
- description of sample [2, 4]: white colour powder
- polymorphic identity confirmed by XRPD, IR and DSC [2, 4]: Form C
SMILES: Cc1c(C(=O)NN2CCCCC2)nn(-c2ccc(Cl)cc2Cl)c1-c1ccc(Cl)cc1 [Form C, N-piperidino-5-(4-chlorophenyl)-1-(2,4-dichlorophenyl)-4-methyl-3-pyrazolecarboxamide]

- order of intrinsic dissolution [3]: amorphous >Form C >Form I
SMILES: Cc1c(C(=O)NN2CCCCC2)nn(-c2ccc(Cl)cc2Cl)c1-c1ccc(Cl)cc1 [amorphous, N-piperidino-5-(4-chlorophenyl)-1-(2,4-dichlorophenyl)-4-methyl-3-pyrazolecarboxamide]
